Patent US20220168431A1, “METHODS OF TREATING CANCER USING TRIMETAZIDINE-BASED COMPOUNDS” (IMBRIA PHARMACEUTICALS, INC., priority 2019, published 2022)

Experiments:
Details in all cases: 10 μM CV-8814
Cyclooxygenase COX-1 = Cyclooxygenase COX-1 (Homo sapiens, UniProt P23219); format: biochemical
Monoamine Oxidase MAO-A = Monoamine Oxidase MAO-A (Homo sapiens, UniProt P21397); format: biochemical
Monoamine Oxidase MAO-B = Monoamine Oxidase MAO-B (Homo sapiens, UniProt P27338); format: biochemical
[1] = biological target: Protein Tyrosine Kinase, Insulin Receptor (Homo sapiens, UniProt P06213); format: biochemical
Adenosine A1 = Adenosine A1 (Homo sapiens, UniProt P30542); format: binding
Adenosine A2A = Adenosine A2A (Homo sapiens, UniProt P29274); format: binding
Adrenergic α1A = Adrenergic α1A (Rattus norvegicus, UniProt P43140); format: binding
Adrenergic α2B = Adrenergic α2B (Homo sapiens, UniProt P18089); format: binding
Androgen (Testosterone) = Androgen (Testosterone) (Homo sapiens, UniProt P10275); format: binding
Androgen (Testosterone), sequence (P10275 whole entry): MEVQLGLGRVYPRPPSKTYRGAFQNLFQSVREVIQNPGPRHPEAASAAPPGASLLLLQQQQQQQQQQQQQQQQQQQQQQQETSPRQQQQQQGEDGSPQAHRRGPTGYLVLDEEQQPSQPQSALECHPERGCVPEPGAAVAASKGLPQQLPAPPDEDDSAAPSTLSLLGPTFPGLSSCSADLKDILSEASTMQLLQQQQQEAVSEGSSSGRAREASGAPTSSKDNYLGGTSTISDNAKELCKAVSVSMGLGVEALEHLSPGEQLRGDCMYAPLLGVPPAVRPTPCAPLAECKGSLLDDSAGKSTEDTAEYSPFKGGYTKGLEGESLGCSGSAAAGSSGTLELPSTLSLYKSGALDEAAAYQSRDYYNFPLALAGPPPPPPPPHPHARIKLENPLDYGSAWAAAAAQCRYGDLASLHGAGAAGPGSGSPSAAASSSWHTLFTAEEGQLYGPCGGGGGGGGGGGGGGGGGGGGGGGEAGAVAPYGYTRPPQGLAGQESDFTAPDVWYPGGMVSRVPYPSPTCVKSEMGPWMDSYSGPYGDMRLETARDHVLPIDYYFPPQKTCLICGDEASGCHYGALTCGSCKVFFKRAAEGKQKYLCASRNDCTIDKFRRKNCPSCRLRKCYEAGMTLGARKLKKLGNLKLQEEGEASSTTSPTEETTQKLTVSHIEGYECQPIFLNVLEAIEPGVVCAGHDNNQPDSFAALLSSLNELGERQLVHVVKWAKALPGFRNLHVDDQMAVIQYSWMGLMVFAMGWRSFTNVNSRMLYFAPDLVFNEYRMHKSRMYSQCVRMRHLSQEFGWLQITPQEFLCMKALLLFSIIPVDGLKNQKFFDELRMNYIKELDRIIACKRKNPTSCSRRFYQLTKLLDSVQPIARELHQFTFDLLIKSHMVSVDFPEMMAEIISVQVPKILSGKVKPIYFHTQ

Bradykinin B2 = Bradykinin B2 (Homo sapiens, UniProt P30411); format: binding
Bradykinin B2, sequence (P30411 whole entry): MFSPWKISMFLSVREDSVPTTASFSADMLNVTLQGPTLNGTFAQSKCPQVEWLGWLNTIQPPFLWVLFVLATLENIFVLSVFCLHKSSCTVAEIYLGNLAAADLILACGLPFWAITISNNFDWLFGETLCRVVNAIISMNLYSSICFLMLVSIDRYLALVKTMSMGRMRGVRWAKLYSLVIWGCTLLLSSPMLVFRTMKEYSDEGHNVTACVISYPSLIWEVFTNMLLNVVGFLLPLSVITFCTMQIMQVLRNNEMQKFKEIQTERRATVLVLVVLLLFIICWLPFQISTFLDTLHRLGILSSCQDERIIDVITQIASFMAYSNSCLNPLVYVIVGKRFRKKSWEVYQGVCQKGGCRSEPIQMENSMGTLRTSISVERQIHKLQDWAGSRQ

Calcium Channel N-Type = Calcium Channel N-Type (Rattus norvegicus, UniProt Q02294); format: binding
Calcium Channel N-Type, sequence (Q02294 whole entry): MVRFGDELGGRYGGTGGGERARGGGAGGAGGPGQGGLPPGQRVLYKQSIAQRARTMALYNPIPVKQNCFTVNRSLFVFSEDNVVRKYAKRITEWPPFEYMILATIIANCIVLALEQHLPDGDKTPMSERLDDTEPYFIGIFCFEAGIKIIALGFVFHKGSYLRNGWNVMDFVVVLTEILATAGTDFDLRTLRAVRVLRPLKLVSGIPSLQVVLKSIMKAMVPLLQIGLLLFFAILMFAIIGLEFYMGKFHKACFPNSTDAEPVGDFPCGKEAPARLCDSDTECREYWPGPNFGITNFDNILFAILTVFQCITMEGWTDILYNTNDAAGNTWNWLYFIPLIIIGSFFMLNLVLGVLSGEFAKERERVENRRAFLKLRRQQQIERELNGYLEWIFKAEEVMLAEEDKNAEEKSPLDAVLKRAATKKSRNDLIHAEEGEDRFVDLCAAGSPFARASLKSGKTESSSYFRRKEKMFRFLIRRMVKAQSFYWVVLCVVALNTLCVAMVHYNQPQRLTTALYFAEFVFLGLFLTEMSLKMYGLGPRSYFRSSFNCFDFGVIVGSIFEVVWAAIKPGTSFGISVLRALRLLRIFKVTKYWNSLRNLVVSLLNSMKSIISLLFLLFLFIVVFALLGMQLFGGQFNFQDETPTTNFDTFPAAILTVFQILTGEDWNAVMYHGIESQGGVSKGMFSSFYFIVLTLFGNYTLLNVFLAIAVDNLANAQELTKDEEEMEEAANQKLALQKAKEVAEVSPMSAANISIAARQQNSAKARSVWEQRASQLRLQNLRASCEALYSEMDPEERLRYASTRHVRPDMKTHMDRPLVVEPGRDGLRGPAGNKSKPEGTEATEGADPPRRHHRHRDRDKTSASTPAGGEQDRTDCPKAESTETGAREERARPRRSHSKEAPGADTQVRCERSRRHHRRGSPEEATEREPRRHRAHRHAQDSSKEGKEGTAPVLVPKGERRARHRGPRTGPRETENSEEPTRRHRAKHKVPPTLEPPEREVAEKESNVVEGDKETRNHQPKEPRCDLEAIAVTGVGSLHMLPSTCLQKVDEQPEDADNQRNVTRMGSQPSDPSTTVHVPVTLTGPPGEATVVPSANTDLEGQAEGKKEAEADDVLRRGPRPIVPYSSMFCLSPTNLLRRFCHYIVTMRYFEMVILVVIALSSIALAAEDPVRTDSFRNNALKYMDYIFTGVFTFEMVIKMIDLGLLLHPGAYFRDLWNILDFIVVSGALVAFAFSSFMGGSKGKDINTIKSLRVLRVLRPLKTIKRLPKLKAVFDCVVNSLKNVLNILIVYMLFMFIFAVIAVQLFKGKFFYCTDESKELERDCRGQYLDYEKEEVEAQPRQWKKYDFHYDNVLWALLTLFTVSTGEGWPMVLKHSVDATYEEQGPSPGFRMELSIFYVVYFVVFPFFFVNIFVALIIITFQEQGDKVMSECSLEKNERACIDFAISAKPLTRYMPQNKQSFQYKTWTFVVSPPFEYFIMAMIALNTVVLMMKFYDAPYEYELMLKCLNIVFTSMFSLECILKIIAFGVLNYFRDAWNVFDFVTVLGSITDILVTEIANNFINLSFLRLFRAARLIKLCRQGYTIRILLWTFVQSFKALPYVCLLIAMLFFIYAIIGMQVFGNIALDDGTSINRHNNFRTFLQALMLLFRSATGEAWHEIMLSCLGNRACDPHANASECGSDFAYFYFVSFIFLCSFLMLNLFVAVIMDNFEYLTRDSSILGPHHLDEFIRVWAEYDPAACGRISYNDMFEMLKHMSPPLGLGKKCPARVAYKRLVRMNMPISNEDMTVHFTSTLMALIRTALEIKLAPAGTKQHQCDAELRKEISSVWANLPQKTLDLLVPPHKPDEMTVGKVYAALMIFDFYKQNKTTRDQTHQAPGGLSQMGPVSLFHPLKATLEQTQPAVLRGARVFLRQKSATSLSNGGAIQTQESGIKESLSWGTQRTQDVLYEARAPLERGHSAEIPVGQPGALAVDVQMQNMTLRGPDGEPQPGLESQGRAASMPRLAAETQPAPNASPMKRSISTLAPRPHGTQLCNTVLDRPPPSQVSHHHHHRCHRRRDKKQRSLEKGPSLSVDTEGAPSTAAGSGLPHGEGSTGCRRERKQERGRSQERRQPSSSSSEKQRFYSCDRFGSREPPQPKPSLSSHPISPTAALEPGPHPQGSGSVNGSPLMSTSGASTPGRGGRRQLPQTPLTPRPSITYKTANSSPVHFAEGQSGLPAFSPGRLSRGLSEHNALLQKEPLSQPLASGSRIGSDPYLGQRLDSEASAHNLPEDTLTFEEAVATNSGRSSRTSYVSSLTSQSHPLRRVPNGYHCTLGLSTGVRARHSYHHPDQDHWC

Cannabinoid CB1 = Cannabinoid CB1 (Homo sapiens, UniProt P21554); format: binding
Chemokine CXCR2 (IL-8RB) = Chemokine CXCR2 (IL-8RB) (Homo sapiens, UniProt P25025); format: binding
[2] = biological target: Cholecystokinin CCK1 (CCKA) (Homo sapiens, UniProt P32238); format: binding
Dopamine D2S = Dopamine D2S (Homo sapiens, UniProt P14416); format: binding
Endothelin ETA = Endothelin ETA (Homo sapiens, UniProt P25101); format: binding
[3] = biological target: Glutamate, Metabotropic, mGlu5 (Homo sapiens, UniProt P41594); format: binding
Melanocortin MC4 = Melanocortin MC4 (Homo sapiens, UniProt P32245); format: binding
Melanocortin MC4, sequence (P32245 whole entry): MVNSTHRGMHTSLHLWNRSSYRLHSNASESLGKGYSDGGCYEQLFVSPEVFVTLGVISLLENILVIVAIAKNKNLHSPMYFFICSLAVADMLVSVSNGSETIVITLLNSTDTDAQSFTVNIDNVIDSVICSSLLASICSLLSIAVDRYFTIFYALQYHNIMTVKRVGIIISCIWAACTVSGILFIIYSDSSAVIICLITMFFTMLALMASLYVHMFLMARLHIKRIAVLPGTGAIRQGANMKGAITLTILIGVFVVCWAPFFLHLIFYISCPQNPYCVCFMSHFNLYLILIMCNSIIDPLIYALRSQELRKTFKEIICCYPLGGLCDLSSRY

Muscarinic M2 = Muscarinic M2 (Homo sapiens, UniProt P08172); format: binding
Muscarinic M4 = Muscarinic M4 (Homo sapiens, UniProt P08173); format: binding
Progesterone PR-B = Progesterone PR-B (Homo sapiens, UniProt P06401); format: binding
[4] = biological target: Serotonin (5-Hydroxytryptamine) 5-HT1A (Homo sapiens, UniProt P08908); format: binding
[5] = biological target: Serotonin (5-Hydroxytryptamine) 5-HT1B (Homo sapiens, UniProt P28222); format: binding
[6] = biological target: Serotonin (5-Hydroxytryptamine) 5-HT2A (Homo sapiens, UniProt P28223); format: binding
Serotonin (5-Hydroxytryptamine) 5-HT2A, sequence (P28223 whole entry): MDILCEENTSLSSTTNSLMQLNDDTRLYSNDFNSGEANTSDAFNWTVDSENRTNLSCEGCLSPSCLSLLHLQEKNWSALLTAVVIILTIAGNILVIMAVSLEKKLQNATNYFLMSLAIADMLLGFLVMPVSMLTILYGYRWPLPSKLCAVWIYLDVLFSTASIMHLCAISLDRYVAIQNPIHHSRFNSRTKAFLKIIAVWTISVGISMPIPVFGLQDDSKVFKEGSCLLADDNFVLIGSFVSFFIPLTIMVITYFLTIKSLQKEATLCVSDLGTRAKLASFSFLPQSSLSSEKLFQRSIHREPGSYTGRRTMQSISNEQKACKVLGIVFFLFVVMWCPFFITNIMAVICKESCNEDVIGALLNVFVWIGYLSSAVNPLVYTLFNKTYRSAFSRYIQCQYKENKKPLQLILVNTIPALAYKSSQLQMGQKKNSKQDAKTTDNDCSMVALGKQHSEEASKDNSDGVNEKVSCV

[7] = biological target: Transporter, Norepinephrine (NET) (Homo sapiens, UniProt P23975); format: binding

Measured: inhibition at 10 µM

Cyclooxygenase COX-1, sequence (P23219 24-599): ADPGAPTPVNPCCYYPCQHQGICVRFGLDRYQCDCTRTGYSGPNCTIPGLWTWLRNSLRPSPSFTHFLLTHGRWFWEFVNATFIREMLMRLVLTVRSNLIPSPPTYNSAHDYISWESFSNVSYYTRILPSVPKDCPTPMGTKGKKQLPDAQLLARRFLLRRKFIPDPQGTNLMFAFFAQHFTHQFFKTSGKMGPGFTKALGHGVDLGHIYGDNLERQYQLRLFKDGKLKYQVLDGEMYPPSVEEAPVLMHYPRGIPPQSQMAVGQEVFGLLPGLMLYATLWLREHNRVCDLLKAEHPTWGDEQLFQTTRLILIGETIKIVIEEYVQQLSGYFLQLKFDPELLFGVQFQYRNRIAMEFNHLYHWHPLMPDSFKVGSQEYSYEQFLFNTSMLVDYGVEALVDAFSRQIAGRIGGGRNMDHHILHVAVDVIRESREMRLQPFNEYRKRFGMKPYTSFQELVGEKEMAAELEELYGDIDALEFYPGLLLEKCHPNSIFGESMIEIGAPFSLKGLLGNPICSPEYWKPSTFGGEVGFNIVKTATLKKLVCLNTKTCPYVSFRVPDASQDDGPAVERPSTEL

COc1ccc(CN2CCN(CCO)CC2)c(OC)c1OC [CV-8814, 2-(4-(2,3,4-trimethoxybenzyl)piperazin-1-yl)ethan-1-01]
< 50%: all assays above
